Where two headings read alike, the source gives them in different places.
Columns and labels:
[1] = tested on: Human coronavirus 229E (HCoV-229E); test: microbe, parasite or virus in culture; type: cell-based
Rhinovirus 14 = test: CPE assay, H1 HeLa cells; type: cell-based; settings: Rhinovirus 14 [H1 HeLa]
Dengue 2 virus (RL) = test: microbe, parasite or virus in culture; type: cell-based
Dengue 3 virus (VN32) = test: microbe, parasite or virus in culture; type: cell-based; settings: Dengue 3 virus (VN32) [Huh-7]
Dengue 4 virus (MY01) = test: microbe, parasite or virus in culture; type: cell-based; settings: Dengue 4 virus (MY01) [Huh-7]
[2] = tested on: Dengue 4 virus (Dakar_HD_34460); test: microbe, parasite or virus in culture; type: cell-based
Zika virus (PRVABC59) = test: NanoLuc reporter virus infection assay, Huh-7; type: cell-based; settings: Zika virus (PRVABC59) [Huh-7]
Zika virus (MR766) = test: microbe, parasite or virus in culture; type: cell-based
Yellow fever virus (17D) = test: microbe, parasite or virus in culture; type: cell-based
West Nile (NY99) = test: microbe, parasite or virus in culture; type: cell-based, West Nile virus
Sudan virus (Yambio) = test: microbe, parasite or virus in culture; type: cell-based
Marburg (Musoke) = test: microbe, parasite or virus in culture; type: cell-based, Marburg virus
Marburg (Drandema) = test: microbe, parasite or virus in culture; type: cell-based, Marburg virus
HCV GT1b replicon = test: HCV subgenomic replicon Renilla luciferase assay, Huh-7-lunet; type: cell-based, hepatitis C virus; settings: Hepatitis C (1b) [Huh-7-lunet]
HCV GT2a replicon = test: as above; type: cell-based, hepatitis C virus; settings: Hepatitis C (2a) [Huh-7-lunet]
[3] = tested on: Influenza B (B/Brisbane/60/2008); test: CPE assay, MDCK cells; type: cell-based; settings: Influenza B virus; Influenza B (B/Brisbane/60/2008) [MDCK]; read-out: Antiviral activity EC50
[4] = tested on: hepatitis B virus (HBV; AD38 strain); test: Anti-HBV assay (HBsAg), HepG2-NTCP cells; type: cell-based; settings: HepG2 or PHH cells
HDV genotype 1 virus = test: HDV infection assay (HDAg immunofluorescence), Huh7-NTCP cells; type: cell-based, hepatitis delta virus; settings: Hepatitis D (Huh7-NTCP)
[5] = tested on: hepatitis E virus (GT3-Kernow C1 p6/Luciferase replicon); test: HEV replicon Gaussia luciferase assay, Huh-7; type: cell-based; settings: Hepatitis E GT3 Kernow C1 p6/Luc replicon [Huh-7]
[6] = tested on: rhinoviruses of serotypes A and B; test: CPE assay, H1 HeLa cells (summary over rhinoviruses); type: cell-based; settings: Enterovirus, read-out: EC50 range against rhinoviruses of serotypes A and B
[7] = tested on: all MARV and Ravn virus (RAVV) isolates tested; test: microbe, parasite or virus in culture; type: cell-based, Marburg virus; settings: Filoviridae, HeLa, read-out: EC50 values against all MARV and RAVV isolates tested
all SUDV isolates tested = test: microbe, parasite or virus in culture; type: cell-based; settings: Sudan ebolavirus, HeLa, read-out: EC50 values against all SUDV isolates tested
SUDV Boniface [8] = type: cell-based, Sudan virus; settings: read-out: RDV EC50
MARV Ci67 = type: cell-based, Marburg virus
SUDV Boniface [9] = test: microbe, parasite or virus in culture; type: cell-based, Sudan virus; settings: Sudan ebolavirus, HeLa; n = 9; read-out: RDV activity against SUDV EC50
Huh-7 cells = settings: human
OC43 = settings: different cells and/or assay protocols, read-out: Previously reported activity EC50; cited from earlier work
Marburg virus (Ci67) = settings: read-out: Previously reported activity EC50; cited from earlier work
[10] = Cytotoxicity in HBV assay; settings: human, HepG2-NTCP cells (clone HY12), HBV-infected
[11] = Compound cytotoxicity by MTS dye reduction; settings: human, H1 HeLa cells
H1 HeLa cells = test: Compound cytotoxicity by MTS dye reduction; settings: H1 HeLa
[12] = Compound cytotoxicity by MTS dye reduction; settings: dog, MDCK cells
MDCK cells = test: Compound cytotoxicity by MTS dye reduction; settings: MDCK; listed as Influenza B (B/Brisbane/60/2008)
[13] = Cell toxicity, CellTiter-Glo, in HBV assay; settings: human, PHH cells (HBV assay)
[14] = Cytotoxicity, CellTiter-Glo, 72 h (OC43 protocol); settings: human, Huh-7 cells
[15] = Multiplex cytotoxicity (calcein AM) in HCV replicon assay; settings: human, Huh-7-lunet HCV genotype 1b replicon cells
[16] = as above; settings: human, Huh-7-lunet HCV genotype 2a replicon cells
[17] = Dengue virus, Huh-7, read-out: Antiviral activity EC50
[18] = n = 1, read-out: Antiviral activity EC50
[19] = Filoviridae, HeLa, read-out: Antiviral activity EC50

CCC(CC)COC(=O)[C@H](C)N[P@](=O)(OC[C@H]1O[C@@](C#N)(c2ccc3c(N)ncnn23)[C@H](O)[C@@H]1O)Oc1ccccc1 [RDV, Remdesivir]
Selectivity index (SI) = CC50/EC50 [1]: > 538 | EC50 ([1]; Human coronavirus 229E, H1-HeLa, read-out: Antiviral activity EC50): 93 ± 53 nM | EC50 (Rhinovirus 14; Enterovirus, read-out: Antiviral activity EC50): 385 ± 318 nM | Selectivity index (SI) = CC50/EC50 (Rhinovirus 14): > 26 | Selectivity index (SI) = CC50/EC50 (Dengue 2 virus (RL)): 115 | EC50 (Dengue 2 virus (RL); [17]): 290 ± 70 nM | Selectivity index (SI) = CC50/EC50 (Dengue 3 virus (VN32)): 278 | EC50 (Dengue 3 virus (VN32); [18]): 120 nM | Selectivity index (SI) = CC50/EC50 (Dengue 4 virus (MY01)): 186 | EC50 (Dengue 4 virus (MY01); [18]): 180 nM | Selectivity index (SI) = CC50/EC50 [2]: 176 | EC50 [2, 17]: 190 ± 50 nM | Selectivity index (SI) = CC50/EC50 (Zika virus (PRVABC59)): 128 | EC50 (Zika virus (PRVABC59); [18]): 260 nM | Selectivity index (SI) = CC50/EC50 (Zika virus (MR766)): 29 | EC50 (Zika virus (MR766); Zika virus, Huh-7, read-out: Antiviral activity EC50): 1150 ± 30 nM | Selectivity index (SI) = CC50/EC50 (Yellow fever virus (17D)): 186 | EC50 (Yellow fever virus (17D); Yellow fever virus, Huh-7, read-out: Antiviral activity EC50): 180 ± 30 nM | Selectivity index (SI) = CC50/EC50 (West Nile (NY99)): 668 | EC50 (West Nile (NY99); West Nile virus, Huh-7, n = 1, read-out: Antiviral activity EC50): 50 nM | Selectivity index (SI) = CC50/EC50 (Sudan virus (Yambio)): > 19 | EC50 (Sudan virus (Yambio); Sudan ebolavirus, HeLa, n = 1, read-out: Antiviral activity EC50): 130 nM | Selectivity index (SI) = CC50/EC50 (Marburg (Musoke)): > 63 | EC50 (Marburg (Musoke); [19]): 40 ± 4 nM | Selectivity index (SI) = CC50/EC50 (Marburg (Drandema)): > 74 | EC50 (Marburg (Drandema); [19]): 34 ± 4 nM | Selectivity index (SI) = CC50/EC50 (HCV GT1b replicon): > 225 | EC50 (HCV GT1b replicon; Hepatitis C virus, GT1B, read-out: Antiviral activity EC50): 89 ± 47 nM | Selectivity index (SI) = CC50/EC50 (HCV GT2a replicon): 236 | EC50 (HCV GT2a replicon; Hepatitis C virus, GT2A, read-out: Antiviral activity EC50): 72 ± 13 nM | EC50 [3]: > 50000 nM | selectivity index of RDV against HBV [4]: ~1 | Selectivity index (SI) (HDV genotype 1 virus): Low (When minimal RDV antiviral activity is observed for a particular virus, low SI is indicated) | EC50 (HDV genotype 1 virus; Hepatitis delta virus, read-out: Antiviral activity EC50): > 5000 nM | Selectivity index (SI) [5]: Low (When minimal RDV antiviral activity is observed for a particular virus, low SI is indicated) | EC50 ([5]; Hepatitis E virus, read-out: Antiviral activity EC50): > 2070 nM | EC50 [6]: 385 to 750 nM | EC50 [7]: 24 to 68 nM | EC50 (all SUDV isolates tested): 120 to 240 nM | EC50 (SUDV Boniface [8]): 212 nM | maximum fold reduction of RDV EC50 in the presence of favipiravir (MARV Ci67): ≥ tenfold | EC50 (SUDV Boniface [9]): 308 nM | concentration at which cytotoxicity was observed (Huh-7 cells): approximately 4 µM | EC50 (OC43): 96 to 150 nM | EC50 (Marburg virus (Ci67)): 10 to 20 nM | CC50 at 5 days [10]: 7400 nM | CC50 [11]: > 10000 nM | CC50 (H1 HeLa cells; listed as Rhinovirus 14): > 10000 nM | CC50 (H1 HeLa cells; listed as Rhinovirus 16): > 10000 nM | CC50 [12]: > 100000 nM | CC50 (MDCK cells): > 100000 nM | CC50 [13]: > 1000 nM | CC50 at 72 h [14]: 18900 ± 1800 nM | CC50 [15]: > 20000 nM | CC50 [16]: 17000 ± 3000 nM
